Laboratory results from US20170267667A1, “[…] AS NON-NUCLEOSIDE REVERSE TRANSCRIPTASE INHIBITORS FOR ANTI-HIV-1 CHEMOTHERAPY” (Purdue Research Foundation, priority 2016, published 2017).

Key:
[1] = tested on: HIV-1RF; assay: XTT cytoprotection assay, HIV-1RF infection in CEM-SS cells; assay type: cell-based; details: for SI (CC50/EC50) CEM-SS cells: CC50/EC50 ratio, HIV-1RF in CEM-SS cells; for EC50: Human immunodeficiency virus 1, inhibition of cytopathicity of HIV-1RF in CEM-SS cells
Description: (§1) In Vitro Antiviral Assay. Evaluation of the antiviral activity of compounds against HIV- 1RF infection in CEM-SS cells was performed using the XTT cytoprotection assay, as previously described (Buckheit, R. W. Jr., et al., Antiviral Res. 1995, 26, 117-132). Evaluation of the antiviral activity of compounds against HIV-1IIIB and HIV-2ROD in MT-4 cells was performed using the MTT assay, as previously described (Rice, W. G. and Bader, J. P., Adv. Pharmacol. (San Diego) 1995, 33, 389-438).

[2] = Cytotoxicity for mock-infected MT-4 cells; assay type: cell-based; details: human
Description: as §1
(§2) Biological Results. The antiviral activities of the ADAMs were evaluated by determining their ability to inhibit the enzymatic activity of HIV-1 RT in vitro (IC50) and protect HIV-infected cells from the cytopathic effects (EC50) of two viral strains (HIV-1RF and HIV-1IIIB). The cytotoxicities (CC50) of the ADAMs were determined on CEM-SS cells and MT-4 cells.

[3] = molecular target: HIV-1 reverse transcriptase (Human immunodeficiency virus type 1 group M subtype B, UniProt P04585); assay: RT inhibition assay, incorporation of [32P]GTP into poly(rC)/oligo(dG) template primer; assay type: biochemical; details: poly(rC):oligo(dG) as the template primer; mean of at least two experiments; read-out: IC50 inhibitory activity versus HIV-1 reverse transcriptase
Description: RT Inhibition Assay. Inhibition of purified recombinant reverse transcriptase was measured by the incorporation of [^32P]GTP into poly(rC)/oligo(dG) homopolymer template primers, as previously described (Cushman, M., et al., J. Med. Chem. 1996, 39, 3217-3227).

[4] = tested on: HIV-1IIIB; assay: MTT assay, HIV-1IIIB in MT-4 cells; assay type: cell-based; details: for SI (CC50/EC50) MT-4 cells: CC50/EC50 ratio, HIV-1IIIB in MT-4 cells; for EC50: Human immunodeficiency virus 1, MT4, inhibition of cytopathicity of HIV-1IIIB in MT-4 cells
Description: as §1

[5] = Cytotoxicity for mock-infected CEM-SS cells; assay type: cell-based; details: human
Description: as §1, §2

SMILES | SI (CC50/EC50) CEM-SS cells [1] | EC50 [1] [µM] | CC50 [2] [µM] | IC50 [3] [µM] | SI (CC50/EC50) MT-4 cells [4] | EC50 [4] [µM] | CC50 [5] [µM]
CO/N=C(\Cl)CCC/C=C(\c1cc(C)c(OC)c(C(=O)SC)c1)c1cc(C)c2onc(OC)c2c1 [ADAM 27, S-Methyl 5-[(1Z,6Z)-6-Chloro-6-(methoxyimino)-1-(3-methoxy-7-methyl-1,2-benzoxazol-5-yl)hex-1-en-1-yl]-2-methoxy-3-methylbenzenecarbothioate] | 3 | 2.42 | 16.3 | 36.4 | 5 | 3.27 | 7.2
CON=C(Cl)c1cc(/C(=C\CCCN2CCOC2=O)c2ccc(C#N)cc2)cc(C)c1OC [ADAM 25, 5-[(1Z)-1-(4-Cyanophenyl)-5-(2-oxo-1,3-oxazolidin-3-yl)pent-1-en-1-yl]-N,2-dimethoxy-3-methylbenzenecarboximidoyl Chloride] |  | > 100 | 6.48 | 42.1 |  | > 6.48 | 6.48
CON=C(F)c1cc(/C(=C\CCCc2nc(C)no2)c2ccc(C#N)cc2)cc(C)c1OC [ADAM 14, 5-[(1Z)-1-(4-Cyanophenyl)-5-(3-methyl-1,2,4-oxadiazol-5-yl)pent-1-en-1-yl]-N,2-dimethoxy-3-methylbenzenecarboximidoyl Fluoride] | 7 | 2.03 | 20.4 | 0.91 | 4 | 5.55 | 13.4
CON=C(F)c1cc(/C(=C\CCCc2nnc(C)o2)c2ccc(C#N)cc2)cc(C)c1OC [ADAM 13, 5-[(1Z)-1-(4-Cyanophenyl)-5-(5-methyl-1,3,4-oxadiazol-2-yl)pent-1-en-1-yl]-N,2-dimethoxy-3-methylbenzenecarboximidoyl Fluoride] |  | > 100 | 11.4 | 44.4 | ≦1 | ≥ 9 | 6.7
CO/N=C(\Cl)CCC/C=C(\c1cc(C)c(OC)c(C(=O)SC)c1)c1cc(C)c2oc(=O)n(C)c2c1 [ADAM 26, S-Methyl 5-[(1E,6Z)-6-Chloro-1-(3,7-dimethyl-2-oxo-2,3-dihydro-1,3-benzoxazol-5-yl)-6-(methoxyimino)hex-1-en-1-yl]-2-methoxy-3-methylbenzenecarbothioate] | >23 | < 0.32 | 59 | 3.4 | 109 | 0.54 | 7.45
CON=C(Cl)c1cc(/C(=C\CCCc2nnc(C)o2)c2cc(C)c3oc(=O)n(C)c3c2)cc(C)c1OC [ADAM 16, 5-[(1E)-1-(3,7-Dimethyl-2-oxo-2,3-dihydro-1,3-benzoxazol-5-yl)-5-(5-methyl-1,3,4-oxadiazol-2-yl)pent-1-en-1-yl]-N,2-dimethoxy-3-methylbenzenecarboximidoyl Chloride] | 4 | 1.1 | 19.9 | 8.2 | 27 | 0.74 | 4.7
CON=C(Cl)c1cc(/C(=C\CCCc2nc(C)no2)c2ccc(C#N)cc2)cc(C)c1OC [ADAM 24, 5-[(1Z)-1-(4-Cyanophenyl)-5-(3-methyl-1,2,4-oxadiazol-5-yl)pent-1-en-1-yl]-N,2-dimethoxy-3-methylbenzenecarboximidoyl Chloride] | 7 | 2.52 | 97.5 | 0.1 | 35 | 2.75 | 16.9
CON=C(F)c1cc(/C(=C\CCCN2CCOC2=O)c2cccc(C#N)c2)cc(C)c1OC [ADAM 12, 5-[(1Z)-1-(3-Cyanophenyl)-5-(2-oxo-1,3-oxazolidin-3-yl)pent-1-en-1-yl]-N,2-dimethoxy-3-methylbenzenecarboximidoyl Fluoride] |  | > 100 | 1.66 | > 100 |  | > 1.66 | 1.66
CON=C(Cl)c1cc(/C(=C\CCCc2nc(C)no2)c2cc(C)c3onc(OC)c3c2)cc(C)c1OC [ADAM 20, N,2-Dimethoxy-5-[(1Z)-1-(3-methoxy-7-methyl-1,2-benzoxazol-5-yl)-5-(3-methyl-1,2,4-oxadiazol-5-yl)pent-1-en-1-yl]-3-methylbenzenecarboximidoyl Chloride] | 7 | 1.7 | 21.2 | 8.03 | 5 | 4.21 | 11.4
CO/N=C(\Cl)CCC/C=C(/c1cccc(C#N)c1)c1cc(C)c(OC)c(C(=O)SC)c1 [ADAM 28, S-Methyl 5-[(1Z,6Z)-6-Chloro-1-(3-cyanophenyl)-6-(methoxyimino)hex-1-en-1-yl]-2-methoxy-3-methylbenzenecarbothioate] | 52 | 1.46 | 143 | 45.3 | 59 | 2.43 | 75.5
CO/N=C(\Cl)CCC/C=C(/c1ccc(C#N)cc1)c1cc(C)c(OC)c(C(=O)SC)c1 [ADAM 29, S-Methyl 5-[(1Z,6Z)-6-Chloro-1-(4-cyanophenyl)-6-(methoxyimino)hex-1-en-1-yl]-2-methoxy-3-methylbenzenecarbothioate] | 25 | 2.29 | 109 | 12 | 33 | 3.26 | 56.5
CON=C(Cl)c1cc(/C(=C\CCCc2nnc(C)o2)c2cccc(C#N)c2)cc(C)c1OC [ADAM 21, 5-[(1Z)-1-(3-Cyanophenyl)-5-(5-methyl-1,3,4-oxadiazol-2-yl)pent-1-en-1-yl]-N,2-dimethoxy-3-methylbenzenecarboximidoyl Chloride] | 2 | 5.8 | 22.3 | 33.3 | 6 | 2.66 | 13.2
CON=C(Cl)c1cc(/C(=C\CCCN2CCOC2=O)c2cc(C)c3oc(=O)n(C)c3c2)cc(C)c1OC [ADAM 18, 5-[(1E)-1-(3,7-Dimethyl-2-oxo-2,3-dihydro-1,3-benzoxazol-5-yl)-5-(2-oxo-1,3-oxazolidin-3-yl)pent-1-en-1-yl]-N,2-dimethoxy-3-methylbenzenecarboximidoyl Chloride] |  | > 100 | 5.19 | 62.9 |  | > 5.19 | 5.99
CON=C(Cl)c1cc(/C(=C\CCCc2nc(C)no2)c2cccc(C#N)c2)cc(C)c1OC [ADAM 22, 5-[(1Z)-1-(3-Cyanophenyl)-5-(3-methyl-1,2,4-oxadiazol-5-yl)pent-1-en-1-yl]-N,2-dimethoxy-3-methylbenzenecarboximidoyl Chloride] | 7 | 3.5 | 110 | > 100 | 41 | 2.69 | 25.5
CON=C(F)c1cc(/C(=C\CCCN2CCOC2=O)c2cc(C)c3oc(=O)n(C)c3c2)cc(C)c1OC [ADAM 6, 5-[(1E)-1-(3,7-Dimethyl-2-oxo-2,3-dihydro-1,3-benzoxazol-5-yl)-5-(2-oxo-1,3-oxazolidin-3-yl)pent-1-en-1-yl]-N,2-dimethoxy-3-methylbenzenecarboximidoyl Fluoride] |  | > 100 | 7.53 | 2.37 |  | > 7.53 | 5.04
CON=C(Cl)c1cc(/C(=C\CCCc2nnc(C)o2)c2cc(C)c3onc(OC)c3c2)cc(C)c1OC [ADAM 19, N,2-Dimethoxy-5-[(1Z)-1-(3-methoxy-7-methyl-1,2-benzoxazol-5-yl)-5-(5-methyl-1,3,4-oxadiazol-2-yl)pent-1-en-1-yl]-3-methylbenzenecarboximidoyl Chloride] | 2 | 5.2 | 17.5 | 33.8 | ≦2 | ≥ 7.03 | 9.7
CON=C(F)c1cc(/C(=C\CCCc2nc(C)no2)c2cccc(C#N)c2)cc(C)c1OC [ADAM 11, 5-[(1Z)-1-(3-Cyanophenyl)-5-(3-methyl-1,2,4-oxadiazol-5-yl)pent-1-en-1-yl]-N,2-dimethoxy-3-methylbenzenecarboximidoyl Fluoride] |  | > 100 | 4.04 | 5.4 |  | > 4.04 | 3.5
CON=C(Cl)c1cc(/C(=C\CCCc2nnc(C)o2)c2ccc(C#N)cc2)cc(C)c1OC [ADAM 23, 5-[(1Z)-1-(4-Cyanophenyl)-5-(5-methyl-1,3,4-oxadiazol-2-yl)pent-1-en-1-yl]-N,2-dimethoxy-3-methylbenzenecarboximidoyl Chloride] | 7 | 2.6 | 30.2 | 32.5 | 8 | 3.64 | 18.1
